In series [1] the target is T1, wild type AXL (wtAXL) receptor tyrosine kinase (Homo sapiens, UniProt P30530).
T1 construct: WtAXL cDNA was cloned into vector pLXSN(ESK) and transfected into Phoenix E packaging cells; expressed in transfected cells; host or cells: NIH3T3 N7 mouse fibroblasts, retrovirally infected (clone 22)
T1 sequence (P30530 26-894): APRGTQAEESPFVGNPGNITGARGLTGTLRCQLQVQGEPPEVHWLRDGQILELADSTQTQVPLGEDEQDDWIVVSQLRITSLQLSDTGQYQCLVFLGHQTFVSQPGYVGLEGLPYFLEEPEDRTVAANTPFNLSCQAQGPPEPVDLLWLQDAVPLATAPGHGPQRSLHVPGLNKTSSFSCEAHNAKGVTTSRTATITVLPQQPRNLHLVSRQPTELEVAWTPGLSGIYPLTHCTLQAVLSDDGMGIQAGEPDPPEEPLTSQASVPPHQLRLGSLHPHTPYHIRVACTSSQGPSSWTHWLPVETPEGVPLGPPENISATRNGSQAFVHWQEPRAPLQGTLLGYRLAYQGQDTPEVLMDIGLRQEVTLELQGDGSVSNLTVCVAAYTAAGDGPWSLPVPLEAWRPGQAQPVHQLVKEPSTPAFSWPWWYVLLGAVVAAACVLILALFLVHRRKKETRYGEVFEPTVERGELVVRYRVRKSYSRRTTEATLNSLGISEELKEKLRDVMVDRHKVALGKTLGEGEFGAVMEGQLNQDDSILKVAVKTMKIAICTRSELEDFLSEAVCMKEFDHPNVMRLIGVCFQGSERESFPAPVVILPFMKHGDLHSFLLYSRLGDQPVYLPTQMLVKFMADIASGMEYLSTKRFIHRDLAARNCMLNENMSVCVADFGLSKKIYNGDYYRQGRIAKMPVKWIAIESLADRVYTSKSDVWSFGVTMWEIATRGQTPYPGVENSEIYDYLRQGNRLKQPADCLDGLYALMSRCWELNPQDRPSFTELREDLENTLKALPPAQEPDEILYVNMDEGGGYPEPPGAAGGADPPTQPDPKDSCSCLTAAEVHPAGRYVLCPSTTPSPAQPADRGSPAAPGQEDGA
As to the kind of experiment: NIH-3T3-AXL cellular tyrosine kinase assay (inhibition of AXL phosphorylation). The note with it: AXL phosphorylation in NIH-3T3-AXL (clone 22) cells, serum-depleted, 2 h with compound, immunoprecipitation / anti-phosphotyrosine blot. Format: cell-based. Put shortly: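 NIH3T3 clones stably expressing human wtAXL (puromycin-selected) were exposed to serially diluted compounds for 2 h. AXL was immunoprecipitated from lysates with anti-AXL antibody, and phosphorylation detected by anti-phosphotyrosine (4G10) western blot with ECL.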

pIC50: −log10 of the molar value.

Our source for the IC50 and melting point values is patent US9206130B2, “Quinoline derivatives as AXL kinase inhibitors” (Max-Planck-Gesellschaft zur Förderung der Wissenschaften …, priority 2008, dated 2015).

In general, pIC50 refers to the IC50 on a negative log10 scale, so that one unit is a factor of ten. The melting point is the temperature of the solid-liquid transition.

`Cc1cc(Oc2ccc(NS(=O)(=O)c3c(Cl)cccc3Cl)c(F)c2)c2cccc(C(F)(F)F)c2n1` [Example C06, 2,6-Dichloro-N-[2-fluoro-4-(2-methyl-8-trifluoromethyl-quinolin-4-yloxy)-phenyl]-benzenesulfonamide] returned a melting point of 171 to 173 °C. Moreover, the pIC50 in series [1] was under 5.00.
Taken in the same sequence, the figures for `COc1cc2nccc(Oc3ccc(NS(=O)(=O)c4ccc(OC)c5ccccc45)c(F)c3)c2cc1OC` [Example A63, 4-Methoxy-naphthalene-1-sulfonic acid [4-(6,7-dimethoxy-quinolin-4-yloxy)-2-fluoro-phenyl]-amide] were 226 to 227 °C and under 6.00.
Turning to `COc1cc2nccc(Oc3ccc(NS(=O)(=O)c4cc(C)c(C)cc4OC)c(F)c3)c2cc1OC` [Example A64, N-[4-(6,7-Dimethoxy-quinolin-4-yloxy)-2-fluoro-phenyl]-2-methoxy-4,5-dimethyl-benzenesulfonamide], the melting point fell in the range of 238 to 240 °C. Also, the pIC50 in series [1] was under 6.00.
`COc1cc2nccc(Oc3ccc(NS(=O)(=O)c4ccc(F)c(Cl)c4)c(F)c3)c2cc1OC` [Example A12, 3-Chloro-N-[4-(6,7-dimethoxy-quinolin-4-yloxy)-2-fluoro-phenyl]-4-fluoro-benzenesulfonamide] registered a melting point of 208 to 210 °C. Moreover, in series [1], the pIC50 is 5.90.
Taken in the same sequence, the figures for `COc1cc2nccc(Oc3ccc(NS(=O)(=O)c4cc(F)ccc4F)cc3)c2cc1OC` [Example A118, N-[4-(6,7-Dimethoxy-quinolin-4-yloxy)-phenyl]-2,5-difluoro-benzenesulfonamide] were 260 to 263 °C and 6.27.
On to `CCc1ccc(S(=O)(=O)Nc2ccc(Oc3ccnc4cc(OC)c(OC)cc34)cc2F)cc1` [Example A56, N-[4-(6,7-Dimethoxy-quinolin-4-yloxy)-2-fluoro-phenyl]-4-ethyl-benzenesulfonamide], for which the melting point was in the range of 193 to 195 °C. Also, the pIC50 in series [1] was under 6.00.
In turn, `COc1cc2nccc(Oc3ccc(NS(=O)(=O)c4ccccc4Br)c(F)c3)c2cc1OC` [Example A55, 2-Bromo-N-[4-(6,7-dimethoxy-quinolin-4-yloxy)-2-fluoro-phenyl]-benzenesulfonamide] returned a melting point of 225 to 227 °C. Besides, the pIC50 in series [1] was under 6.00.
`COc1cc2nccc(Oc3ccc(NS(=O)(=O)c4cc(Cl)cc(Cl)c4O)cc3OC)c2cc1OC` [Example A156, 3,5-Dichloro-N-[4-(6,7-dimethoxy-quinolin-4-yloxy)-3-methoxy-phenyl]-2-hydroxy-benzenesulfonamide] came in with a melting point of over 240 °C. Also, in series [1], the negative-log IC50 (pIC50) was under 6.00.
The corresponding values for `COc1cc2nccc(Oc3ccc(NS(=O)(=O)c4ccc5c(c4)CC(=O)N5C)c(F)c3)c2cc1OC` [Example A137, 1-Methyl-2-oxo-2,3-dihydro-1H-indole-5-sulfonic acid [4-(6,7-dimethoxy-quinolin-4-yloxy)-2-fluoro-phenyl]-amide] are 195 to 197 °C and under 5.00.
The corresponding values for `COc1cc2nccc(Oc3ccc(NS(=O)(=O)c4ccc(OC)c5ccccc45)c(C)c3)c2cc1OC` [Example A150, 4-Methoxy-naphthalene-1-sulfonic acid [4-(6,7-dimethoxy-quinolin-4-yloxy)-2-methyl-phenyl]-amide] are 216 to 217 °C and under 5.00.
`Cc1cc(Oc2ccc(NS(=O)(=O)c3csc4ccccc34)c(F)c2)c2cccc(C(F)(F)F)c2n1` [Example C18, Benzo[b]thiophene-3-sulfonic acid [2-fluoro-4-(2-methyl-8-trifluoromethyl-quinolin-4-yloxy)phenyl]-amide] had a melting point of 242 to 244 °C. Further, the pIC50 in series [1] was under 5.00.
Turning to `Cc1cc(Oc2ccc(NS(=O)(=O)c3cccc4ccccc34)cc2)c2cc(F)ccc2n1` [Example B20, Naphthalene-1-sulfonic acid [4-(6-fluoro-2-methyl-quinolin-4-yloxy)-phenyl]-amide], the melting point was in the range of 223 to 225 °C. Moreover, the pIC50 in series [1] was under 5.00.
The compound `COc1cc2nccc(Oc3ccc(NS(=O)(=O)c4ccc(Oc5ccccc5)cc4)c(F)c3)c2cc1OC` [Example A57, N-[4-(6,7-Dimethoxy-quinolin-4-yloxy)-2-fluoro-phenyl]-4-phenoxy-benzenesulfonamide] had a melting point of 202 to 204 °C. Further, the pIC50 in series [1] was under 5.52.
In the case of `COc1cc2c(Oc3ccc(NS(=O)(=O)c4cccc(-c5ccccc5)c4)cc3F)ccnc2cc1OCCCN1CCC(C)CC1` [Example D29, Biphenyl-3-sulfonic acid (3-fluoro-4-{6-methoxy-7-[3-(4-methyl-piperidin-1-yl)-propoxy]-quinolin-4-yloxy}-phenyl)-amide], the melting point fell in the range of 196 to 198 °C. In addition, in series [1], the pIC50 is 6.75.
Turning to `COc1cc2nccc(Oc3ccc(NS(=O)(=O)c4cccc(-c5ccccc5)c4)cc3F)c2cc1OC` [Example A97, Biphenyl-3-sulfonic acid [4-(6,7-dimethoxy-quinolin-4-yloxy)-3-fluoro-phenyl]-amide], the melting point lay in the range of 109 to 111 °C. Also, the pIC50 in series [1] is 6.27.
The compound `Cc1cc(Oc2ccc(NS(=O)(=O)c3ccccc3C(F)(F)F)c(F)c2)c2cccc(C(F)(F)F)c2n1` [Example C07, N-[2-Fluoro-4-(2-methyl-8-trifluoromethyl-quinolin-4-yloxy)-phenyl]-2-trifluoromethyl-benzenesulfonamid] registered a melting point of 183 to 185 °C. The negative logarithm of the IC50 (pIC50) in series [1] was under 5.00.
`COc1cc2nccc(Oc3ccc(NS(=O)(=O)c4ccc(-c5ccccc5)cc4)c(F)c3)c2cc1OC` [Example A136, Biphenyl-4-sulfonic acid [4-(6,7-dimethoxy-quinolin-4-yloxy)-2-fluoro-phenyl]-amide] returned a melting point of 199 to 201 °C. Besides, in series [1], the pIC50 is under 5.00.
Regarding `Cc1cc(Oc2ccc(NS(=O)(=O)c3cccc(C#N)c3)c(F)c2)c2cc(F)ccc2n1` [Example B2, 3-Cyano-N-[2-fluoro-4-(6-fluoro-2-methyl-quinolin-4-yloxy)-phenyl]-benzenesulfonamide], the melting point lay in the range of 190 to 191 °C. The pIC50 in series [1] is under 5.00.
Turning to `Cc1cc(Oc2ccc(NS(=O)(=O)c3ccc(F)c(Cl)c3)c(F)c2)c2cccc(C(F)(F)F)c2n1` [Example C12, 3-Chloro-4-fluoro-N-[2-fluoro-4-(2-methyl-8-trifluoromethyl-quinolin-4-yloxy)-phenyl]-benzenesulfonamide], the melting point was in the range of 202 to 203 °C. The negative logarithm of the IC50 (pIC50) in series [1] is under 5.00.
As to `COc1cc2nccc(Oc3ccc(NS(=O)(=O)c4cccc5ccccc45)cc3C)c2cc1OC` [Example A77, Naphthalene-1-sulfonic acid [4-(6,7-dimethoxy-quinolin-4-yloxy)-3-methyl-phenyl]-amide], the melting point is 118 to 120 °C. The pIC50 in series [1] is under 5.00.
The corresponding values for `COc1cc2nccc(Oc3ccc(NS(=O)(=O)c4sc(NC(C)=O)cc4C)c(F)c3)c2cc1OC` [Example A7, N-{5-[4-(6,7-Dimethoxy-quinolin-4-yloxy)-2-fluoro-phenylsulfamoyl]-4-methyl-thiophen-2-yl}-acetamide] are 133 to 135 °C and under 5.00.
For the compound `COc1cc2nccc(Oc3ccc(NS(=O)(=O)c4ccccc4OC(F)(F)F)c(C)c3)c2cc1OC` [Example A112, N-[4-(6,7-Dimethoxy-quinolin-4-yloxy)-2-methyl-phenyl]-2-trifluoromethoxy-benzenesulfonamide], the melting point fell in the range of 230 to 232 °C. Moreover, the pIC50 in series [1] is under 5.52.
On to `COc1cc2nccc(Oc3ccc(NS(=O)(=O)c4ccc(Br)cc4OC(F)(F)F)cc3)c2cc1OC` [Example A149, 4-Bromo-N-[4-(6,7-dimethoxy-quinolin-4-yloxy)-phenyl]-2-trifluoromethoxy-benzenesulfonamide], for which the melting point lay within 237 to 239 °C. The pIC50 in series [1] is under 5.52.
`COc1cc2nccc(Oc3ccc(NS(=O)(=O)c4cccc(-c5ncccn5)c4)cc3OC)c2cc1OC` [Example A143, N-[4-(6,7-Dimethoxy-quinolin-4-yloxy)-3-methoxy-phenyl]-3-pyrimidin-2-yl-benzenesulfonamide] yielded a melting point of 135 to 137 °C. Also, the pIC50 in series [1] is under 5.00.
